Assay results from article PMC12648864 (Biology of Sex Differences, 2025).
“And” between values parts separate entries of the source, which are not always exact repeats. Equal values may be shown once. Read-outs that look alike come from different tables or passages of the source.

Test system: plasma metabolites
Assay type: in vivo, rat
Description: Male and female SD rats were divided into experimental and control groups. Each group contained 10 male and 10 female rats. […] Blood was collected from orbital vein into sodium heparin-coated centrifugal tubes pre-chilled at 4 ℃, at 30 min, 2 h, and 12 h post-administration respectively. Plasma was separated by gentle inversion, immediately quenched in liquid nitrogen, and centrifuged at 1500 g for 10 min at 4 ℃. The prepared plasma was stored at − 80 ℃ until LC-MS/MS analysis.
The stored plasma samples were thawed at 4 °C, and 100 µL of each sample was transferred to a centrifuge tube. Proteins were precipitated using 1 mL of methanol/acetonitrile/water solution (2:2:1, v: v:v) at 4 °C. After vortex mixing, the sample mixture was sonicated for 30 min (ice was used to maintain the low-temperature conditions). The sonicated mixture was allowed to stand for 10 min at […], then centrifuged at 14,000 g for 20 min at 4 °C. The resulting supernatant was collected and dried under vacuum. For instrumental analysis, the dried supernatant was reconstituted in 100 µL of aqueous acetonitrile solution, vortexed, then centrifuged at 14,000 g for 15 min at 4 °C. To ensure instrument stability and data reliability, quality control samples were prepared and analyzed using random sampling.
Chromatographic conditions: separation was performed in a Waters Acquity UPLC BEH Amide column (1.7 μm, 2.1 × 100 mm). The column temperature was 25 ℃ and flow rate was 0.5 mL/min. The injection volume was 2 µL, with the mobile phases consisting of A: water + 25 mM ammonium acetate + 25 mM ammonia, and B: acetonitrile. The gradient elution program was as follows: 0–0.5 min, 95% B; 0.5–7 min, 95%−65% B; 7–8 min, 65%−40% B; 8–9 min, 40% B; 9–9.1 min, 40%−95%B; 9.1–12 min, 95%B.
MS conditions: Detection was carried out using electrospray ionization in both positive and negative ion modes. The following parameters were used: spray voltage, ± 5500 V; ionization temperature, 600 ℃; nebulization air pressure, 60 psi; auxiliary air pressure, 60 psi; air curtain air pressure, 30 psi; time-of-flight MS scanning range (m/z), 60–1000 Da; product ion scanning range, 25–1000 Da. The secondary mass spectra were acquired using information-dependent acquisition in high-resolution mode. The cone bore voltage was ± 60 V (positive and negative modes) and collision energy was 35 ± 15 eV.
Orthogonal partial least squares-discriminant analysis (OPLS-DA) were computed for control female and male rats. […] Differential metabolites were identified using stringent criteria: variable importance in projection (VIP) scores > 1 and statistically significant from t-test.
OPLS-DA scores were calculated for the control group and experimental male rats. […] Differential metabolites were identified using stringent selection criteria: VIP scores > 1.0 and P < 0.05, as derived from the OPLS-DA model.
We performed pairwise comparisons of metabolites between male and female rats in the experimental and control groups. […] We performed KEGG enrichment analysis on metabolites that differed between male and female rats in the experimental group (Fig. 6G-I).

[1] = male rats, test (TM5) vs control (BM5), 2 hours, plasma
[2] = female rats, 30 minutes, test group (TF3, strychnine) vs control group (BF3), plasma metabolite
[3] = male rats, test (TM8) vs control (BM8), 12 hours, plasma
[4] = female rats, 12 hour, test group (TF8, strychnine) vs control group (BF8), plasma metabolite
[5] = female rats, 2 hour, test group (TF5, strychnine) vs control group (BF5), plasma metabolite
[6] = male rats, test (TM3) vs control (BM3), 30 minutes, plasma

Row | Structure (SMILES) | Fold change [2] | Fold change [3] | Fold change [4] | also measured
1 | CCCCCCCCCCCCCCCC(=O)OC[C@@H](O)COP(=O)([O-])OCC[N+](C)(C)C [1-Palmitoyllysophosphatidylcholine] |  |  |  | Fold change [1]: 1.155
2 | CCCCCCCCCCCCC/C=C/[C@@H](O)[C@H](COP(=O)([O-])OCC[N+](C)(C)C)NC(=O)CCCCCCCCCCCCCCCCC [Sphingomyelin (d18:1/18:0)] |  |  |  | Fold change (rat, in vivo): 1.142 and 1.189
3 | CCCCCCCCCCCCCCC[C@@H](O)[C@@H](N)CO [Sphinganine] | 1.985 |  |  | 
4 | C=C1CC[C@H](O)C/C1=C/C=C1\CCC[C@]2(C)[C@@H]([C@H](C)CCCC(C)C)CC[C@@H]12 [Cholecalciferol (Vitamin D3)] | 1.921 |  |  | Fold change [1]: 1.578
5 | CCCCCCCCCCCCCCCC(=O)OC[C@H](COP(=O)([O-])OCC[N+](C)(C)C)OC(=O)CCCCCCCCCCCCCCC [PC(16:0/16:0)] |  | 0.7843 |  | 
6 | CC(C)CCC[C@@H](C)[C@H]1CC[C@H]2C3=CC[C@H]4C[C@@H](O)CC[C@]4(C)[C@H]3CC[C@]12C [Lathosterol] | 2.481 | 3.049 | 0.602 | 
7 | COc1ccc(-c2cc(=O)c3c(OC)c(OC)c(OC)c(OC)c3o2)cc1 [Tangeritin] |  | 0.02313 | 9.489 | Fold change [5]: 3.045
8 | CCCCCCCCCCCCCCCC(=O)OCC(O)CO (stereo not shown) [1-Palmitoylglycerol] | 0.3279 |  | 1.171 | Fold change [1]: 0.6081
9 | O=C(O)[C@H]1CCCCN1 [D-Pipecolinic acid] | 2.231 |  |  | Fold change [5]: 1.817
10 | CCCCCCCCCCCCCCCCSC[C@H](COP(=O)(O)OCC[N+](C)(C)C)NC(=O)CCCCCCCCCCCCCCC [Thioetheramide-PC] |  | 0.7991 | 1.1574 | 
11 | CC(=O)OC[C@H](N)C(=O)O [O-Acetyl-L-serine] |  |  |  | Fold change [6]: 0.6094
12 | CCCC[C@H](N)C(=O)O [L-Norleucine] | 0.6394 | 0.6711 | 1.298 | Fold change [5]: 1.28
13 | NC(N)=O [Urea] |  |  |  | Fold change [5]: 1.116
14 | CCCCC/C=C\C/C=C\CCCCCCCC(=O)OCC(O)CO (racemic) [MG(18:2(9Z,12Z)/0:0/0:0)[rac]] |  |  |  | Fold change [6]: 0.8489
15 | CCCCCCCCCCCCC/C=C/[C@@H](O)[C@H](CO)NC(=O)CCCCCCCCCCCCCCC [N-Palmitoylsphingosine] |  | 1.476 |  | 
16 | O=C(O)[C@@H]1CCCCN1 [L-Pipecolic acid] | 0.7035 |  | 1.276 | Fold change [5]: 1.162
17 | C[n+]1cccc(C(N)=O)c1 [1-Methylnicotinamide] |  |  |  | Fold change [1]: 1.347
18 | CN(C)C(N)=NCCC[C@H](N)C(=O)O [NG,NG-dimethyl-L-arginine(ADMA)] |  |  |  | Fold change [6]: 0.5058
19 | CCCCCCCC/C=C\CCCCCCCC(=O)OC[C@H](COP(=O)([O-])OCC[N+](C)(C)C)OC(=O)CCCCCCC/C=C\CCCCCCCC | 0.7409 |  |  | Fold change [6]: 1.344
20 | CCCCCCCCCCCCCC(=O)OC[C@@H](O)COP(=O)([O-])OCC[N+](C)(C)C [1-Myristoyl-sn-glycero-3-phosphocholine] | 0.7956 | 1.421 | 0.767 | Fold change [5]: 0.6202; Fold change [6]: 1.568
21 | CCCCCCCC/C=C\CCCCCCCC(=O)OC[C@@H](O)COP(=O)([O-])OCC[N+](C)(C)C [1-Oleoyl-sn-glycero-3-phosphocholine] | 0.8445 |  |  | 
22 | CCCCCCCCCCCCCCCCCC(=O)OC[C@@H](O)COP(=O)([O-])OCC[N+](C)(C)C [1-Stearoyl-sn-glycerol 3-phosphocholine] |  | 0.2224 |  | Fold change [6]: 0.8936
23 | CSC[C@H]1O[C@@H](n2cnc3c(N)ncnc32)[C@H](O)[C@@H]1O [S-Methyl-5'-thioadenosine] |  | 0.6708 |  | 
24 | CCCCCCCCCCCCCCCC(=O)O[C@H](CC(=O)[O-])C[N+](C)(C)C [L-Palmitoylcarnitine] | 2.52 |  |  | Fold change [5]: 1.713
25 | CCCCCCCC/C=C\CCCCCCCC(=O)O[C@H](COC(=O)CCCCCCCCCCCCCCCCC)COP(=O)([O-])OCC[N+](C)(C)C |  |  |  | Fold change [6]: 0.7683
26 | O=C1CCCCCN1 [epsilon-Caprolactam] | 1.263 |  | 0.793 | Fold change [1]: 0.6921
